Test results as given in patent US11034698B2, “Pyrazolo[ 1,5a]pyrimidine derivatives as IRAK4 modulators” (priority 2017, dated 2021).
Where a name gives a salt, the structure may show the parent alone. Read-outs that look alike come from different tables or passages of the source.

Molecular target: human IRAK4 (Homo sapiens (Human), UniProt Q9NWZ3)
Assay: IRAK4 kinase inhibition, Transcreener fluorescence polarization (ADP)
Type: biochemical
Procedure: Compounds were assayed for inhibition of human IRAK4 and IRAK1 catalytic activity using recombinant enzyme produced from insect cells. Full-length IRAK4 protein, carrying an N-terminal His6-Tag, was obtained from Life Technologies (Carlsbad, Calif., USA). The IRAK1 construct was produced internally and was comprised of IRAK1 residues Arg194 to Ser712, preceded by an NH2-terminal His6 tag and the coding sequence for glutathione-S-transferase.
Kinase activities were assayed using the Transcreener-Fluorecescence polarization platform (BelBrook Labs, Madison, Wis., USA) that measures amounts of the reaction product, ADP.

[1] = recombinant full-length His6-IRAK4 1.25 nM, 125 uM ATP, 125 uM peptide, 90 min, ATP Km 642 uM, read-out: IRAK4 Ki

Sequence of human IRAK4 (Q9NWZ3 whole entry): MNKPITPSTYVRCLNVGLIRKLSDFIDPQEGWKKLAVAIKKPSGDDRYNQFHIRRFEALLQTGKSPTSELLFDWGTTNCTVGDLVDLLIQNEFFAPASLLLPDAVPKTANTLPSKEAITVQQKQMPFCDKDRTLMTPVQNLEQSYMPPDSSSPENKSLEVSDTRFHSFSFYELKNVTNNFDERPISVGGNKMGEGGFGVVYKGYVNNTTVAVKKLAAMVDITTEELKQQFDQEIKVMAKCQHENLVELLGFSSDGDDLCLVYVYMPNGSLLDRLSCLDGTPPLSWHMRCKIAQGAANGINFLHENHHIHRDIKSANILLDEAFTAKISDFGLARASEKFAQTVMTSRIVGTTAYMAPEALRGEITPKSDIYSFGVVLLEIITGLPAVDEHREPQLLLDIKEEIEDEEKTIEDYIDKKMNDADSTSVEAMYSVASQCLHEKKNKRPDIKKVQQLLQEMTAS

CC1(C)Cc2cc(NC(=O)c3cnn4cccnc34)c(N3CCN(C[C@H]4CCCC(=O)N4)CC3)cc2O1 (single isomer, unassigned) [Example 7]
Ki: 10 nM

CC[C@H]1CC(=O)NN1C1CCN(c2cc3c(cc2NC(=O)c2cnn4cccnc24)CC(C)(C)O3)CC1 (single isomer, unassigned) [Example 18]
Ki: 6.7 nM

CC1(C)Cc2cc(NC(=O)c3cnn4cccnc34)c(O[C@@H]3CN(CC(N)=O)C[C@H]3N)cc2O1 (single isomer, unassigned) [Example 20]
Ki: 17 nM

CCN1C[C@@H](COc2cc3c(cc2NC(=O)c2cnn4cccnc24)CC(C)(C)O3)CC1=O (single isomer, unassigned) [Example 23]
Ki: 250 nM

CN1C[C@@H](COc2cc3c(cc2NC(=O)c2cnn4cccnc24)CC(C)(C)O3)CC1=O (single isomer, unassigned) [Example 25]
Ki: 90 nM

CC1(C)Cc2cc(NC(=O)c3cnn4cccnc34)c(OC[C@H]3Cc4ccccc4[C@H]3N)cc2O1 (single isomer, unassigned) [Example 27]
Ki: 670 nM

CC1(C)Cc2cc(NC(=O)c3cnn4cccnc34)c(OC[C@H]3Cc4ccccc4[C@@H]3N)cc2O1 (single isomer, unassigned) [Example 28]
Ki: 260 nM

CC1(C)Cc2cc(NC(=O)c3cnn4cccnc34)c(OC[C@@H]3Cc4ccccc4[C@@H]3N)cc2O1 (single isomer, unassigned) [Example 29]
Ki: 780 nM

CC1(C)Cc2cc(NC(=O)c3cnn4cccnc34)c(OC[C@@H]3C[C@@H]4NCCO[C@H]4C3)cc2O1 (single isomer, unassigned) [Example 31]
Ki: 60 nM

CC1(C)Cc2cc(NC(=O)c3cnn4cccnc34)c(OC[C@@H]3C[C@H]4NCCO[C@@H]4C3)cc2O1 (single isomer, unassigned) [Example 32]
Ki: 720 nM

CC1(C)Cc2cc(NC(=O)c3cnn4cccnc34)c(OC[C@H]3C[C@H]4NCCO[C@@H]4C3)cc2O1 (single isomer, unassigned) [Example 33]
Ki: 230 nM

COc1cc2c(cc1NC(=O)c1cnn3ccc(N4C[C@H](N)CC(F)(F)C4)nc13)CC(C)(C)O2 (single isomer, unassigned) [Example 37]
Ki: 7.7 nM

C[C@]1(CCC#N)COc2cc(N3CCOCC3)c(NC(=O)c3cnn4cccnc34)cc2C1 (single isomer, unassigned) [Example 59]
Ki: 30 nM

CC(C)(O)[C@H](F)CN1Cc2cc(NC(=O)c3cnn4cccnc34)c(O[C@@H]3CCNC3)cc2C1=O (single isomer, unassigned) [Example 63]
Ki: 5.3 nM

CC(C)(O)[C@H](F)CN1Cc2cc(NC(=O)c3cnn4cccnc34)c(O[C@@H]3CC[C@H](O)C3)cc2C1=O (single isomer, unassigned) [Example 67]
Ki: 1.1 nM

CC(C)Oc1cc2c(cc1NC(=O)c1cnn3cccnc13)CN([C@@H]1CCOC1)C2=O (single isomer, unassigned) [Example 69]
Ki: 1.8 nM

CC(C)(O)[C@H](F)CN1Cc2cc(NC(=O)c3cnn4cccnc34)c(OC[C@H]3CNC(=O)C3)cc2C1=O (single isomer, unassigned) [Example 72]
Ki: 1 nM

CC(C)(O)[C@H](F)CN1Cc2cc(NC(=O)c3cnn4cccnc34)c(O[C@H]3CCOC3)cc2C1=O (single isomer, unassigned) [Example 84]
Ki: 0.49 nM

C[C@@H]1C[C@@H]2CN(c3cc4c(cc3NC(=O)c3cnn5cccnc35)CN(C[C@@H](F)C(C)(C)O)C4=O)CCN2C1 (single isomer, unassigned) [Example 111]
Ki: 9.9 nM

CN(C)c1cc2c(cc1NC(=O)c1cnn3cccnc13)CC(C)(C)[C@@H]2O (single isomer, unassigned) [Example 157]
Ki: 310 nM

CC1(C)Cc2cc(NC(=O)c3cnn4cccnc34)c(N3CCN(CCN)CC3)cc2O1 [Example 1, N-[6-[4-(2-aminoethyl)piperazin-1-yl]-2,2-dimethyl-3H-benzofuran-5-yl]pyrazolo[1,5-a]pyrimidine-3-carboxamide]
Ki [1]: 7.4 nM

CC(=O)NCCN1CCN(c2cc3c(cc2NC(=O)c2cnn4cccnc24)CC(C)(C)O3)CC1 [Example 3, N-(6-(4-(2-Acetamidoethyl)piperazin-1-yl)-2,2-dimethyl-2,3-dihydrobenzofuran-5-yl)pyrazolo[1,5-a]pyrimidine-3-carboxamide]
Ki [1]: 3.7 nM

CN(C)CCN1CCN(c2cc3c(cc2NC(=O)c2cnn4cccnc24)CC(C)(C)O3)CC1 [Example 4, N-(6-(4-(2-(Dimethylamino)ethyl)piperazin-1-yl)-2,2-dimethyl-2,3-dihydrobenzofuran-5-yl)pyrazolo[1,5-a]pyrimidine-3-carboxamide]
Ki [1]: 41 nM

Cc1ccc(=O)[nH]c1CN1CCN(c2cc3c(cc2NC(=O)c2cnn4cccnc24)CC(C)(C)O3)CC1 [Example 5, N-(2,2-Dimethyl-6-(4-((3-methyl-6-oxo-1,6-dihydropyridin-2-yl)methyl)piperazin-1-yl)-2,3-dihydrobenzofuran-5-yl)pyrazolo[1,5-a]pyrimidine-3-carboxamide]
Ki [1]: 18 nM

CC1(C)Cc2cc(NC(=O)c3cnn4cccnc34)c(N3CCN(C[C@@H]4CCCC(=O)N4)CC3)cc2O1 [Example 6, (S)-N-(2,2-Dimethyl-6-(4-((6-oxopiperidin-2-yl)methyl)piperazin-1-yl)-2,3-dihydrobenzofuran-5-yl)pyrazolo[1,5-a]pyrimidine-3-carboxamide]
Ki [1]: 5.3 nM

Cc1nc[nH]c1CN1CCN(c2cc3c(cc2NC(=O)c2cnn4cccnc24)CC(C)(C)O3)CC1 [Example 8, N-(2,2-Dimethyl-6-(4-((4-methyl-1H-imidazol-5-yl)methyl)piperazin-1-yl)-2,3-dihvdrobenzofuran-5-yl)pyrazolo[1,5-a]pyrimidine-3-carboxamide]
Ki [1]: 3.8 nM

CCc1nc[nH]c1CN1CCN(c2cc3c(cc2NC(=O)c2cnn4cccnc24)CC(C)(C)O3)CC1 [Example 9, N-[6-[4-[(4-Ethyl-1H-imidazol-5-yl)methyl]piperazin-1-yl]-2,2-dimethyl-3H-benzofuran-5-yl]pyrazolo[1,5-a]pyrimidine-3-carboxamide]
Ki [1]: 3.9 nM

CC1(C)Cc2cc(NC(=O)c3cnn4cccnc34)c(N3CCN(Cc4[nH]cnc4Cl)CC3)cc2O1 [Example 10, N-(6-(4-((4-Chloro-1H-imidazol-5-yl)methyl)piperazin-1-yl)-2,2-dimethyl-2,3-dihydrobenzofuran-5-yl)pyrazolo[1,5-a]pyrimidine-3-carboxamide]
Ki [1]: 2.3 nM

Cc1ncsc1CN1CCN(c2cc3c(cc2NC(=O)c2cnn4cccnc24)CC(C)(C)O3)CC1 [Example 11, N-(2,2-Dimethyl-6-(4-((4-methylthiazol-5-yl)methyl)piperazin-1-yl)-2,3-dihydrobenzofuran-5-yl)pyrazolo[1,5-a]pyrimidine-3-carboxamide]
Ki [1]: 4.6 nM

Cc1oncc1CN1CCN(c2cc3c(cc2NC(=O)c2cnn4cccnc24)CC(C)(C)O3)CC1 [Example 12, N-(2,2-Dimethyl-6-(4-((5-methylisoxazol-4-yl)methyl)piperazin-1-yl)-2,3-dihydrobenzofuran-5-yl)pyrazolo[1,5-a]pyrimidine-3-carboxamide]
Ki [1]: 5.2 nM

CC1(C)Cc2cc(NC(=O)c3cnn4cccnc34)c(N3CCN(C4COC4)CC3)cc2O1 [Example 13, N-(2,2-Dimethyl-6-(4-(oxetan-3-yl)piperazin-1-yl)-2,3-dihydrobenzofuran-5-yl)pyrazolo[1,5-a]pyrimidine-3-carboxamide]
Ki [1]: 8.1 nM

Cc1nocc1CN1CCN(c2cc3c(cc2NC(=O)c2cnn4cccnc24)CC(C)(C)O3)CC1 [Example 14, N-(2,2-Dimethyl-6-(4-((3-methylisoxazol-4-yl)methyl)piperazin-1-yl)-2,3-dihydrobenzofuran-5-yl)pyrazolo[1,5-a]pyrimidine-3-carboxamide hydrochloride]
Ki [1]: 5.2 nM

CCc1oc(=O)[nH]c1CN1CCN(c2cc3c(cc2NC(=O)c2cnn4cccnc24)CC(C)(C)O3)CC1 [Example 15, N-(6-(4-((5-Ethyl-2-oxo-2,3-dihydrooxazol-4-yl)methyl)piperazin-1-yl)-2,2-dimethyl-2,3-dihydrobenzofuran-5-yl)pyrazolo[1,5-a]pyrimidine-3-carboxamide]
Ki [1]: 9.4 nM

Cc1noc(C)c1CN1CCN(c2cc3c(cc2NC(=O)c2cnn4cccnc24)CC(C)(C)O3)CC1 [Example 16, N-(6-(4-((3,5-Dimethylisoxazol-4-yl)methyl)piperazin-1-yl)-2,2-dimethyl-2,3-dihydrobenzofuran-5-yl)pyrazolo[1,5-a]pyrimidine-3-carboxamide]
Ki [1]: 14 nM

CC[C@@H]1CC(=O)NN1C1CCN(c2cc3c(cc2NC(=O)c2cnn4cccnc24)CC(C)(C)O3)CC1 [Example 17, (R)-N-(6-(4-(5-Ethyl-3-oxopyrazolidin-1-yl)piperidin-1-yl)-2,2-dimethyl-2,3-dihydrobenzofuran-5-yl)pyrazolo[1,5-a]pyrimidine-3-carboxamide]
Ki [1]: 8.4 nM

CC1(C)Cc2cc(NC(=O)c3cnn4cccnc34)c(O[C@H]3CN(CC(N)=O)C[C@@H]3N)cc2O1 [Example 19, N-(6-(((3S,4S)-4-Amino-1-(2-amino-2-oxoethyl)pyrrolidin-3-yl)oxy)-2,2-dimethyl-2,3-dihydrobenzofuran-5-yl)pyrazolo[1,5-a]pyrimidine-3-carboxamide]
Ki [1]: 53 nM

COc1cc2c(cc1NC(=O)c1cnn3ccc(Cl)nc13)CC(C)(C)O2 [Example 21, 5-Chloro-N-(6-methoxy-2,2-dimethyl-2,3-dihydrobenzofuran-5-yl)pyrazolo[1,5-a]pyrimidine-3-carboxamide]
Ki [1]: 110 nM

CCN1C[C@H](COc2cc3c(cc2NC(=O)c2cnn4cccnc24)CC(C)(C)O3)CC1=O [Example 22, (R)-N-(6-((1-Ethyl-5-oxopyrrolidin-3-yl)methoxy)-2,2-dimethyl-2,3-dihydrobenzofuran-5-yl)pyrazolo[1,5-a]pyrimidine-3-carboxamide]
Ki [1]: 460 nM
